From patent US8377945B2, “Small molecule inhibitors of spleen tyrosine kinase (SYK)” (Rigel Pharmaceuticals Inc., priority 2009, dated 2013)

What was measured:
Syk kinase = target: T1, Syk kinase (Homo sapiens, UniProt P43405); assay: ELISA-based Syk kinase assay (phosphorylation of HS1 peptide substrate by isolated Syk kinase); format: biochemical; conditions: IC50 of Syk kinase inhibition; 2 μM ATP, 2 μM peptide substrate
T1 construct: purchased Millipore 14-314
Method in brief: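 Recombinant Syk (0.25 ng) phosphorylated biotinylated HS1 peptide (2 μM) with 2 μM ATP in 20 mM HEPES pH 7.4, 5 mM MgCl2, 2 mM MnCl2, 1 mM DTT, 0.01% Tween 20, 3% DMSO, 30 min at room temperature on neutravidin plates. Phosphotyrosine detected by anti-pTyr/HRP chemiluminescent ELISA.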

[1] = test system: Human mast cells (CHMC cells); assay: Tryptase release assay (mast cell degranulation induced by anti-IgG FcγR cross-linking); format: cell-based; conditions: IC50 of tryptase release from human mast cells after anti-IgG stimulation, read-out: LD Tryptase
Protocol: Compounds were assayed for inhibition of mast cell activation induced by FcγR cross-linking by measuring the activity of tryptase released upon degranulation as follows:
Human mast cells were cultured and differentiated from […] progenitor cell as described in U.S. Patent Publication No. 2005-234049, incorporated herein by reference. For example, 65 μl of various concentrations of the compound to be assayed were prepared in MT (137 mM NaCl, 2.7 mM KCl, 1.8 mM CaCl2, 1.0 mM MgCl2, 5.6 mM Glucose, 20 mM Hepes (pH 7.4), 0.1% Bovine Serum Albumin, (Sigma A4503)) containing 2% MeOH and 1% DMSO, or control buffer were added to duplicate 96-well V-bottom plates. Pelleted and resuspended (in warm MT) CHMC cells (65 μl) were added to each 96-well plate, mixed and incubated for 1 hour at 37° C. 25 μl of 6× anti-IgG Rabbit anti-human IgG, Affinity purified (Bethyl Laboratories Cat No. A80-105A3) final concentration 1 μg/ml, was added to the test wells. MT (25 μl) was added to control wells. After a 60-minute incubation at 37° C., cells and cell debris were pelleted by centrifugation at 1000 rpm for 10 min and tryptase and leukotriene C4 levels were measured.
To measure tryptase levels, 25 μl of supernatant from each well was transferred to a fresh 96-well black bottom plate, to which 100 μl of fresh tryptase substrate solution [(Z-Ala-Lys-Arg-AMC2TFA; Enzyme Systems Products, #AMC-246)] 1:2000 in tryptase assay buffer [0.1 M Hepes (pH 7.5), 10% w/v Glycerol, 10 μM Heparin (Sigma H-4898) 0.01% NaN3] was added. After 30 minute incubation at room temperature, the optical density of the plates is measured at 355 nm/460 nm on a spectrophotometric plate reader. Table 2 provides the IC50 values.

Row | IC50 (Syk kinase) [nM] | IC50 [1] [nM] | Structure (SMILES)
1 | 510 to 2990 | 11000 to 100000 | COc1cc(-c2[nH]c3c(C#N)cnn3c2Nc2ccc(CNC(=O)c3ccc(C)nc3)cc2)cc(OC)c1OC [Compound 154]
2 | 510 to 2990 | < 10000 | COc1cc(-c2[nH]c3c(C#N)cnn3c2Nc2ccc(CNC(=O)c3cnccc3C(F)(F)F)cc2)cc(OC)c1OC [Compound 155]
3 | 510 to 2990 | < 10000 | COc1cc(-c2[nH]c3c(C#N)cnn3c2Nc2ccc(CNC(=O)c3ccc(C(F)(F)F)nc3)cc2)cc(OC)c1OC [Compound 156]
4 | < 500 | 11000 to 100000 | COc1cc(-c2[nH]c3c(C#N)cnn3c2Nc2ccc(SC)c(F)c2)cc(OC)c1OC [Compound 157]
